SMILES strings stand for the structures. A value given as a limit tells only on which side of the number the result lay.

The test system of this experiment is Human Umbilical Vein Endothelial cells (VEGF-stimulated). Briefly: HUVEC proliferation assay, VEGF-stimulated. The format is cell-based. As to conditions: VEGF 50 ng/mL, 72 h, CyQuant, read-out: inhibited VEGF-stimulated HUVEC proliferation at a level. As to the method: Human Umbilical Vein Endothelial cells are purchased from Clonetics, Inc., as cryopreserved cells harvested from a pool of donors. These cells, at passage 1, are thawed and expanded in EBM-2 complete medium, until passage 2 or 3. The cells are trypsinized, washed in DMEM+10% FBS+antibiotics, and spun at 1000 rpm for 10 min. Prior to centrifugation of the cells, a small amount is collected for a cell count. After centrifugation, the medium is discarded, and the cells are resuspended in the appropriate volume of DMEM+10% FBS+antibiotics to achieve a concentration of 3×10^5 cells/mL. Another cell count is performed to confirm the cell concentration. The cells are diluted to 3×10^4 cells/mL in DMEM+10% FBS+antibiotics, and 100 μL of cells are added to a 96-well plate. The cells are incubated at 37° C. for 22 h.
Prior to the completion of the incubation period, compound dilutions are prepared. Five-point, five-fold serial dilutions are prepared in DMSO, at concentrations 400-fold greater than the final concentrations desired. 2.5 μL of each compound dilution are diluted further in a total of 1 mL DMEM+10% FBS+antibiotics (400× dilution). Medium containing 0.25% DMSO is also prepared for the 0 μM compound sample. At the 22-hour timepoint, the medium is removed from the cells, and 100 μL of each compound dilution is added. The cells are incubated at 37° C. for 2-3 h.
During the compound pre-incubation period, the growth factors are diluted to the appropriate concentrations. Solutions of DMEM+10% FBS+antibiotics, containing either VEGF or bFGF at the following concentrations: 50, 10, 2, 0.4, 0.08, and 0 ng/mL are prepared. For the compound-treated cells, solutions of VEGF at 550 ng/mL or bFGF at 220 ng/mL for 50 ng/mL or 20 ng/mL final concentrations, respectively, are prepared since 10 μL of each will be added to the cells (110 μL final volume). At the appropriate time after adding the compounds, the growth factors are added. VEGF is added to one set of plates, while bFGF is added to another set of plates. For the growth factor control curves, the media on wells B4-G6 of plates 1 and 2 are replaced with media containing VEGF or bFGF at the varying concentrations (50-0 ng/mL). The cells are incubated at 37° C. for an additional 72 h.
At the completion of the 72 h incubation period, the medium is removed, and the cells are washed twice with PBS. After the second wash with PBS, the plates are tapped gently to remove excess PBS, and the cells are placed at −70° C. for at least 30 min. The cells are thawed and analyzed using the CyQuant fluorescent dye (Molecular Probes C-7026), following the manufacturer's recommendations. The plates are read on a Victor/Wallac 1420 workstation at 485 nm/530 nm (excitation/emission). Raw data are collected and analyzed using a 4-parameter fit equation in XLFit. IC50 values are then determined.
For `CC1(C)CNCc2cc(NC(=O)c3cccnc3NCc3ccnc(N)c3)ccc21` [Example 1168, 2-(((2-Amino-4-pyridinyl)methyl)amino)-N-(4,4-dimethyl-1,2,3,4-tetrahydro-7-isoquinolinyl)-3-pyridinecarboxamide], the IC50 was < 50 nM.
As for `COc1cc(CNc2ncccc2C(=O)Nc2ccc3c(c2)CNCC3(C)C)ccn1` [Example 1177, N-(4,4-Dimethyl-1,2,3,4-tetrahydro-isoquinolin-7-yl)-2-[(2-methoxy-pyridin-4-ylmethyl)-amino]-nicotinamide], the IC50 was < 50 nM.
Turning to `CNc1cc(CNc2ncccc2C(=O)Nc2ccc3c(c2)NCC32CC2)ccn1` [Example 1107, N-(1,2-dihydroindol-3-spiro-1′-cyclopropane-6-yl)-2-[(2-methylaminopyridin-4-ylmethyl)-amino]-nicotinamide], the IC50 is < 50 nM.
For `CC1(C)CNc2cc(NC(=O)c3cccnc3NCc3ccncn3)ccc21` [Example 1029, N-(3,3-Dimethyl-2,3-dihydro-1H-indol-6-yl)-2-((4-pyrimidinylmethyl)amino)-3-pyridinecarboxamide] the value was < 50 nM.
Consider `CS(=O)(=O)NCCOc1cc(NC(=O)c2cccnc2NCc2ccncc2)cc(C(F)(F)F)c1` [Example 1090, N-(3-((2-((methylsulfonyl)amino)ethyl)oxy)-5-(trifluoromethyl)phenyl)-2-((4-pyridinylmethyl)amino)-3-pyridinecarboxamide], for which the IC50 is < 50 nM.
In the case of `COc1cc(CNc2ncccc2C(=O)Nc2ccc3c(c2)NCC3(C)C)ccn1` [Example 1000, N-(3,3-dimethyl-2,3-dihydro-1H-indol-6-yl)-2-[(2-methoxy-pyridin-4-ylmethyl)-amino]-nicotinamide] it was < 50 nM.
Take `CNc1nccc(CNc2ncccc2C(=O)Nc2cc(NC(=O)O[C@H]3CCOC3)cc(C(F)(F)F)c2)n1` [Example 1089, (3S)-tetrahydro-3-furanyl 3-(((2-(((2-(methylamino)-4-pyrimidinyl)methyl)amino)-3-pyridinyl)carbonyl)amino)-5-(trifluoromethyl)phenylcarbamate]: the IC50 was < 50 nM.
Turning to `COc1nccc(CNc2ncccc2C(=O)Nc2cc(OC[C@@H]3CCCN3C)cc(C(F)(F)F)c2)n1` [Example 1047, 2-(((2-(methyloxy)-4-pyrimidinyl)methyl)amino)-N-(3-((((2S)-1-methyl-2-pyrrolidinyl)methyl)oxy)-5-(trifluoromethyl)phenyl)-3-pyridinecarboxamide], the IC50 is < 50 nM.
`CCN1CCC(C)(C)c2ccc(NC(=O)c3cccnc3NCc3ccncc3)cc21` [Example 1124, N-(1-Ethyl-4,4-dimethyl-1,2,3,4-tetrahydro-quinolin-7-yl)-2-[(pyridin-4-ylmethyl)-amino]-nicotinamide]: the IC50 was < 50 nM.
Turning to `O=C(Nc1ccc(-c2ccccc2)cc1)c1cccnc1NCc1ccncc1` [Example 159, N-(4-Biphenyl){2-[(4-pyridylmethyl)amino](3-pyridyl)}carboxamide], the IC50 is < 50 nM.
For the compound `O=C(Nc1ccc(C(F)(F)C(F)(F)F)cc1)c1cccnc1NCc1ccncc1` [Example 78, N-[4-(1,1,2,2,2-Pentafluoroethyl)phenyl]{2-[(4-pyridylmethyl)amino](3-pyridyl)}carboxamide], the IC50 was < 50 nM.
For `CC1(C)CNCc2cc(NC(=O)c3cccnc3NCc3ccnc4[nH]ccc34)ccc21` [Example 1145, N-(4,4-Dimethyl-1,2,3,4-tetrahydro-isoquinolin-7-yl)-2-[(1H-pyrrolo[2,3-b]pyridin-4-ylmethyl)-amino]-nicotinamide] the value was < 50 nM.
With `CN(C)CCOCCOc1cc(CNc2ncccc2C(=O)Nc2ccc(C(C)(C)C)cc2)ccn1` [Example 151, (2-{[(2-{2-[2-(Dimethylamino)ethoxy]ethoxy}(4-pyridyl))methyl]amino}(3-pyridyl))-N-[4-(tert-butyl)phenyl]carboxamide], the IC50 was < 50 nM.
For `COc1nccc(CNc2ncccc2C(=O)Nc2ccc3c(c2)CNCC3(C)C)n1` [Example 1132, N-(4,4-Dimethyl-1,2,3,4-tetrahydro-isoquinolin-7-yl)-2-[(2-methoxy-pyrimidin-4-ylmethyl)-amino]-nicotinamide] the value was < 50 nM; for `CNc1nccc(CNc2ncccc2C(=O)Nc2cc(O[C@@H]3CCOC3)cc(C(F)(F)F)c2)n1` [Example 1084, 2-(((2-(methylamino)-4-pyrimidinyl)methyl)amino)-N-(3-((3R)-tetrahydro-3-furanyloxy)-5-(trifluoromethyl)phenyl)-3-pyridinecarboxamide], < 50 nM; for `O=C(Nc1ccc(C(F)(F)C(F)(F)F)c(OCCN2CCCCC2)c1)c1cccnc1NCc1ccncc1` [Example 955, N-[4-Pentafluoroethyl-3-(2-piperidin-1-yl-ethoxy)-phenyl]-2-[(pyridin-4-ylmethyl)-amino]-nicotinamide], < 50 nM.
In the case of `CNc1cc(CNc2ncccc2C(=O)Nc2ccc3c(c2)N(C(C)=O)CC3(C)C)ccn1` [Example 1103, N-(1-Acetyl-3,3-dimethyl-2,3-dihydro-1H-indol-6-yl)-2-[(2-methylamino-pyridin-4-ylmethyl)-amino]-nicotinamide], the IC50 was < 50 nM.
Take `CC1(C)CNCc2cc(NC(=O)c3cccnc3NCc3ccnc4c3CCN4)ccc21` [Example 1147, 2-[(2,3-Dihydro-1H-pyrrolo[2,3-b]pyridin-4-ylmethyl)-amino]-N-(4,4-dimethyl-1,2,3,4-tetrahydro-isoquinolin-7-yl)-nicotinamide]: the IC50 is < 50 nM.
As to `O=C(Nc1ccc(Cl)cc1)c1ncccc1NCc1ccc2ncccc2c1` [Example 7, N-(4-Chlorophenyl){3-[(6-quinolylmethyl)amino](2-pyridyl)}carboxamide], the IC50 was < 50 nM.
Turning to `CS(=O)(=O)NCCOc1cc(NC(=O)c2cccnc2NCc2ccncc2)ccc1C(F)(F)C(F)(F)F` [Example 1031, N-(3-((2-((Methylsulfonyl)amino)ethyl)oxy)-4-(pentafluoroethyl)phenyl)-2-((4-pyridinylmethyl)amino)-3-pyridinecarboxamide], the IC50 was < 50 nM.
For `CC1(C)CNc2cc(NC(=O)c3cccnc3NCc3ccnc4ccccc34)ccc21` [Example 1023, N-(3,3-Dimethyl-2,3-dihydro-1H-indol-6-yl)-2-((4-quinolinylmethyl)amino)-3-pyridinecarboxamide], the IC50 is < 50 nM.
In the case of `CC1(C)CNc2cc(NC(=O)c3cccnc3NCc3ccncc3)ccc21` [Example 133, N-(3,3-Dimethylindolin-6-yl){2-[(4-pyridylmethyl)amino](3-pyridyl)}carboxamide] it was < 50 nM; in that of `CNc1nccc(CNc2ncccc2C(=O)Nc2ccc3c(c2)CN(C)CC3(C)C)n1` [Example 1041, 2-(((2-(methylamino)-4-pyrimidinyl)methyl)amino)-N-(2,4,4-trimethyl-1,2,3,4-tetrahydro-7-isoquinolinyl)-3-pyridinecarboxamide], < 50 nM; in that of `CNc1nccc(CNc2ncccc2C(=O)Nc2ccc(C(C)(C)C3CCN(C)CC3)cc2)n1` [Example 1043, 2-(((2-(methylamino)-4-pyrimidinyl)methyl)amino)-N-(4-(1-methyl-1-(1-methyl-4-piperidinyl)ethyl)phenyl)-3-pyridinecarboxamide], < 50 nM.
For `CNc1nccc(CNc2ncccc2C(=O)Nc2ccc3c(c2)NCCC3(C)C)n1` [Example 1112, N-(4,4-Dimethyl-1,2,3,4-tetrahydro-quinolin-7-yl)-2-[(2-methylamino-pyrimidin-4-ylmethyl)-amino]-nicotinamide], the IC50 was < 50 nM.
Consider `CN(C)CC(=O)Nc1cc(NC(=O)c2cccnc2NCc2ccnc3ccccc23)ccc1C(C)(C)C` [Example 1072, N-(4-(1,1-dimethylethyl)-3-((N,N-dimethylglycyl)amino)phenyl)-2-((4-quinolinylmethyl)amino)-3-pyridinecarboxamide], for which the IC50 was < 50 nM.
Turning to `CC1(C)CNC(=O)c2cc(NC(=O)c3cccnc3NCc3ccncc3)ccc21` [Example 946, N-(4,4-Dimethyl-1-oxo-1,2,3,4-tetrahydro-isoquinolin-7-yl)-2-[(pyridin-4-ylmethyl)-amino]-nicotinamide], the IC50 was < 50 nM.
